The text below walks through data of patent publication US5059442A, “Primary amide esters as low calorie fat mimetics” (Nabisco Brands, Inc., priority 1989, dated 1991).

Series [1] is described as follows: in vitro digestibility: hydrolysis with pancreatic lipase. The conditions noted are these: pig, pH 7.1 buffer, 37° C., same conditions as triolein control. In kind it is in vitro ADME, porcine. On the procedure:
(§1) This example outlines the procedure for estimating the in vitro digestibility of the synthetic fat mimetics of this invention.
(§2) 1. Buffer: A pH 7.1 phosphate buffer is prepared by dissolving 6.8 g KH2 PO4 in 1 L of millipore filtered water (to yield 0.05 M phosphate). Fifty mg Ca(NO3)2 is added and 5.0 g cholic acid (Na salt, an ox bile isolate from Sigma) to give 0.3 mM Ca++ and 0.5 % cholic acid in 0.05 M phosphate. The pH is adjusted to approximately 7.1 with solid NaOH. Several drops of Baker "Resi-analyzed" toluene are added to prevent bacterial growth during storage at 3°-5° C. 2. Lipase: About 15 mg/mL commercial porcine pancreatic lipase from U.S. Biochemical Corporation is dissolved in buffer.
(§3) 3. Substrates and Standards: A 1.0 mL volumetric flask is charged with an amount of lipid substrate calculated to give a concentration of 200 nanomoles per microliter in Baker "Resianalyzed" toluene. (The proper concentration may be approximated by doubling the molecular weight of the lipid in question, dividing by 10, and diluting to the mark; this yields about 200 nanomoles per microliter.) This preparation affords the substrate to be used in the hydrolysis reactions.
(§4) Fatty acids and glyceride standards from Nu Chek or Sigma are prepared for elution on TLC plates (prewashed with 1:1 chloroform/methanol) by diluting the substrate solution with 10:1 toluene (1 part substrate plus 9 parts toluene) in septum vials.
(§5) In a 25 mL Erlenmeyer, emulsify 20 mL buffer and 40 microliters of substrate using an ultrasonic disrupter at a microtip maximum setting for approximately 10 seconds. […] Place in a 37° C. water bath and stir vigorously. After temperature equilibration, add 40 microliters of enzyme solution and start timing. Remove 5.0 mL aliquots at convenient time intervals for analysis. To establish a standard curve for triolein, aliquots are taken at 10, 20, 30 and 40 minutes.
(§6) Add the aliquot to a 15 mL glass centrifuge tube containing a drop of concentrated HCl. Add approximately 3 mL of a 2:1 mixture of CHCl3 :CH3 OH and shake vigorously. Centrifuge at approximately 5000 rpm for 5 minutes and transfer the bottom layer with a Pasteur pipet to a 5 mL septum vial. Repeat the extraction step once and combine the two bottom layers. Evaporate the solvent in nitrogen gas. After about half of the solvent is removed, add an equivalent volume absolute ethanol and continue evaporation in a nitrogen stream until dryness is achieved. Samples may be warmed with a heat gun to facilitate drying.
(§7) When the samples are dry, add exactly 200 microliters of toluene containing 10% DMSO, cap tightly, and spot TLC plate with 2.0 microliters per channel. […]

Series [2] has as its system porcine pancreatic lipase. The description is as above. Particulars: pH 7.1 buffer, 37° C., in 10 minutes. In kind it is in vitro ADME. As to the method: as §1, §2, §3, §4, §5, §6, §7
Series [3] can be described thus: in vivo animal feeding study for caloric availability. Set-up: species or system male Sprague-Dawley rats. The conditions noted are these: rats, diet of 50% fort and 21% test compound, 14 days; from weight gain and corn oil base line correlation. The source says: This example illustrates how the novel fat mimetics of this invention are screened for caloric availability by a carefully controlled in vivo animal feeding study.
An experimental relationship between total calories ingested and animal body weight gain is established by monitoring the body weight gain associated with consumption of a nutritionally balanced diet containing varying concentrations of a reference substance such as corn oil which has a known caloric availability. Correlations between total calories ingested and body weight gain are excellent (r=0.99).
Caloric availability of a test material is evaluated by substituting a specific weight of the test material for the reference substance and observing the body weight gain. The gain in body weight is equated to a total number of calories using the correlation previously established for the reference data. The estimated number of calories ingested are divided by the weight of test material to give the apparent calories per gram for the test material. Generally speaking, in these bioavailability studies, the degree of perianal pelt soiling correlates with reduced bioavailability.
The test animals are six-week-old male Sprague-Dawley rats obtained from the Portage, Michigan facility of the Charles River Laboratories, Inc. After acclimation for 15 days, the test duration is 14 days. […]

The conditions of series [4]: rat, in vivo; cited from earlier work.

Molecule `CCCCCCCC/C=C\CCCCCCCC(=O)NC(C)(COC(=O)CCCCCCC/C=C\CCCCCCCC)COC(=O)CCCCCCC/C=C\CCCCCCCC` [Example 4, 2-Methyl-1,3-bis(oleoyloxy)propyl 2-oleamide] showed a metabolised in series [1] of 10%.

Consider `CCCCCCCC/C=C\CCCCCCCC(=O)OCC(COC(=O)CCCCCCC/C=C\CCCCCCCC)OC(=O)CCCCCCC/C=C\CCCCCCCC` [triolein], for which the “hydrolysis of triglyceride control” value in series [2] is given as “substantially hydrolyzed”.

As for `CCCCCCCC/C=C\CCCCCCCC(=O)NCC(COC(=O)CCCCCCC/C=C\CCCCCCCC)OC(=O)CCCCCCC/C=C\CCCCCCCC` (stereo not drawn) [Example 2, 2,3-Bis(oleyoyloxy)propyl oleamide], the metabolised in series [1] amounted to 50%. The “caloric availability (kcal/gram upon being metabolized)” value in series [3] was “about 3.3 kcal/gram”.

`CCCCCCCC/C=C\CCCCCCCC(=O)NC(COC(=O)CCCCCCC/C=C\CCCCCCCC)COC(=O)CCCCCCC/C=C\CCCCCCCC` [Example 3, 1,3-Bis(oleoyloxy)propyl 2-oleamide] displayed a metabolised in series [1] of 50%.

As for corn oil, the “caloric availability of reference substance” value in series [4] was 9.0 kcal/gm.
